{"source": "patent US20230320989A1", "about": "“SUSTAINED-RELEASE PHARMACEUTICAL FORMULATION OF FUSED TRICYCLIC ?-AMINO ACID DERIVATIVE AND PREPARATION METHOD THEREFOR” (SICHUAN HAISCO PHARMACEUTICAL CO., LTD., priority 2020, published 2023)", "origin": "cited, not measured here", "details": "patients with diabetic peripheral neuropathy"}
{"smiles": "NCC1(CC(=O)O)CCCCC1", "note": "[gabapentin]", "values": [{"measurement": "proportion of patients whose pain is relieved to a great extent", "value": "about 60%"}]}
